Reference: patent publication US8778919B2, “Cyclic anilino—pyridinotriazines” (Janssen Pharmaceutica NV, priority 2005, dated 2014)

Legend:
GSK-3β = GSK-3β (Homo sapiens, UniProt P49841); experiment: GSK-3 kinase assay (C1), GSK-3β; assay type: biochemical; conditions: 1 μM ATP, read-out: C1 Score β
Method in brief: (§1)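 Radiometric SPA at room temperature in 25 mM Tris pH 7.4 with 10 mM MgCl2, 1 mM DTT, 5.7 ng/μl GSK-3β or 0.25 ng/μl GSK-3α, 5 μM biotinylated CREB peptide and 1 μM ATP plus ^33P-ATP. Stopped after 1 h; IC50 from dose-response versus no-compound control, reported as pIC50 score bands.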

GSK-3α = GSK-3α (Homo sapiens, UniProt P49840); experiment: GSK-3 kinase assay (C1), GSK-3α; assay type: biochemical; conditions: 1 μM ATP, read-out: C1 Score α
GSK-3α, sequence (P49840 whole entry, species assumed): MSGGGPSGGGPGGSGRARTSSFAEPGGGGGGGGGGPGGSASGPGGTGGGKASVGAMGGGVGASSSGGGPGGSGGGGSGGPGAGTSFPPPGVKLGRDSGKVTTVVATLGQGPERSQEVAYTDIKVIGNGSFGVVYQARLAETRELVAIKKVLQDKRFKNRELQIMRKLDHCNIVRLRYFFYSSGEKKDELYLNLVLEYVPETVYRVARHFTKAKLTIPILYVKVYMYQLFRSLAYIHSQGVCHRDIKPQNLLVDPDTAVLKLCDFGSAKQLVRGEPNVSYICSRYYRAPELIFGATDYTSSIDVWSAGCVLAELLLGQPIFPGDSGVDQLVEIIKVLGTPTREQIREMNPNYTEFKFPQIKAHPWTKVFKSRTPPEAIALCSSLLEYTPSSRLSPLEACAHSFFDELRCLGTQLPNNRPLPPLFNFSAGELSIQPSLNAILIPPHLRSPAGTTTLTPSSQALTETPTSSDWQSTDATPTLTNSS
Method in brief: as §1

Chang cells = experiment: GSK-3 cellular assay (C2): 14C-D-glucose incorporation into glycogen; assay type: cell-based; conditions: increase in D-glucose incorporation into glycogen, test concentration of 10^−6 M
Description: Test compounds were tested for their ability to increase the incorporation of ^14C-D-glucose into glycogen in living cells. To do this, Chang cells (360,000 cells/well) were cultured in 0.5 ml of MEM Rega 3 medium supplemented with 10% fetal calf serum, 1% L-glutamine and 2% sodium carbonate. After 3 days, cells were washed with 0.5 ml of phosphate-buffered saline and overlayed with 1 ml of serum- and glucose-free DMEM medium. Then, 2 μl of compound in DMSO and 50 μl substrate (3 mM glucose and 0.5 μCi ^14C-D-glucose were added and the cultures were incubated for 90 min. Cells were then extracted with 0.5 ml of 20% KOH for 60 min at 37° C. and the cell lysates were transferred to 10 ml tubes containing 300 μl of 1 mg/ml glycogen as […]. Following the addition of 2 ml ethanol, total glycogen was precipitated overnight at −20° C. and the precipitates were recovered by centrifugation. Precipitates were then resuspended in 1 ml of water and transferred to scintillation counter vials. and the amount of ^14C-D-glucose incorporation into glycogen was measured by scintillation counting. Scores for the compounds according to the invention, were obtained at a test concentration of 10^−6 M. Score 1=10-30% increase, Score 2=30-60% increase, Score 3=60-80% increase and Score 4=>80% increase in D-glucose incorporation.

CDK5/p35 human = CDK5/p35 human (Homo sapiens, UniProt Q00535); experiment: Kinase profiling C3.6 CDK5/p35 human; assay type: biochemical; conditions: CDK5/p35, test concentration of 10^−6 M
CDK5/p35 human, sequence (Q00535 whole entry): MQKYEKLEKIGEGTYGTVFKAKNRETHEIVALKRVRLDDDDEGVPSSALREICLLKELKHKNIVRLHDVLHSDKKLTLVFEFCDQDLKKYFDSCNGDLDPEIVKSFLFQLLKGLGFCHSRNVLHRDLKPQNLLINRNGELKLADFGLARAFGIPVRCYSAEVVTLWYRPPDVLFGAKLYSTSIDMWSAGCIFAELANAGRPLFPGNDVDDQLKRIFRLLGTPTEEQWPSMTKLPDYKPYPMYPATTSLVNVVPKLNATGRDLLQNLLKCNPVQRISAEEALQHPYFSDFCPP
CDK5/p35 human, sequence (Q15078 whole entry partner): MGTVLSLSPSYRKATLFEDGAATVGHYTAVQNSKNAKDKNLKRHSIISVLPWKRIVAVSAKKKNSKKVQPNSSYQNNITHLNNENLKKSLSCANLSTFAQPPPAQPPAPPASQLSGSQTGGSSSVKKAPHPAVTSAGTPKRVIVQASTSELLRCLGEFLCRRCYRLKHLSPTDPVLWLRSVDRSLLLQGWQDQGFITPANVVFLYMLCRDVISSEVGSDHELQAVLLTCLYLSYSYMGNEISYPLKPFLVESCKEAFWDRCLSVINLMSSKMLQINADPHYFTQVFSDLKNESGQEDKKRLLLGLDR
Description: (§2) The in vitro inhibition of a panel of kinases was assessed using either the glass-fiber filter technology as described by Davies, S. P. et al., Biochem J. (2000), 351; p. 95-105. In the glass-fiber filter technology the activity of the kinase of interest is measured using an appropriate substrate that is incubated with the aforementioned kinase protein in the presence of (^33P) radiolabeled ATP. (^33P) Phosporylation of the substrate is subsequently measured as radioactivity bound on a glassfiber-filter.
(§3) All kinases are pre-diluted to a 10× working concentration prior to addition into the assay. The composition of the dilution buffer for each kinase is detailed below.
(§4) All substrates are dissolved and diluted to working stocks in de-ionised water, apart from histone H1 that is stored in 10× working stock in 20 mM MOPS pH 7.4.
(§5) In a final reaction volume of 25 μl, CDK5/p35 human (5-10 mU) is incubated with 8 mM MOPS pH 7.0, 0.2 mM EDTA, 0.1 mg/ml histone H1, 10 mM MgAcetate and [γ-^33P-ATP] (specific activity approx. 500 cpm/pmol, concentration as required). The reaction is initiated by the addition of the MgATP mix. After incubation for 40 minutes at room temperature, the reaction is stopped by the addition of 5 μl of a 3% phosphoric acid solution. 10 μl of the reaction is then spotted onto a P30 filtermat and washed three times for 5 minutes in 75 mM phosphoric acid and once in methanol prior to drying and scintillation counting.

CDK7/cyclinH/MAT1 (h) = CDK7/cyclinH/MAT1 (h) (Homo sapiens, UniProt P50613); experiment: Kinase profiling C3.8 CDK7/cyclinH/MAT1 human; assay type: biochemical; conditions: CDK7/cyclinH/MAT1, test concentration of 10^−6 M
CDK7/cyclinH/MAT1 (h), sequence (P50613 whole entry): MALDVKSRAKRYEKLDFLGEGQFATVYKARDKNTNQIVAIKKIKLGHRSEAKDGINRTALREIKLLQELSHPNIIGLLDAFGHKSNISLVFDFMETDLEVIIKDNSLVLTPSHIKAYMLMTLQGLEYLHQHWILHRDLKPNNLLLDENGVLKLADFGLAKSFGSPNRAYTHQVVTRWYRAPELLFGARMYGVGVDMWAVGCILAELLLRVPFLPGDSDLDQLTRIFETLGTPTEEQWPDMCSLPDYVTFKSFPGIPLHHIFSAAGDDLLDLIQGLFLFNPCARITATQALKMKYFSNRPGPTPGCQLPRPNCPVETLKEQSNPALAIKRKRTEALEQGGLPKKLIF
CDK7/cyclinH/MAT1 (h), sequence (P51946 whole entry partner): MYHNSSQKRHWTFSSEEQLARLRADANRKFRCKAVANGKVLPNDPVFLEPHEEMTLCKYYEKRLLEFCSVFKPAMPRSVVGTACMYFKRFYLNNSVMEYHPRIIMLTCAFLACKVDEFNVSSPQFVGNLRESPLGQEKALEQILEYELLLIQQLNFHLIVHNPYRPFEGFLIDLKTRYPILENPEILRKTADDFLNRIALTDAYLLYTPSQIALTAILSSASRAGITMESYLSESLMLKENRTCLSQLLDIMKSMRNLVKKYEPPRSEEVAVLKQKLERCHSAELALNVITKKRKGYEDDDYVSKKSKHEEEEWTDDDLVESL
CDK7/cyclinH/MAT1 (h), sequence (P51948 whole entry partner): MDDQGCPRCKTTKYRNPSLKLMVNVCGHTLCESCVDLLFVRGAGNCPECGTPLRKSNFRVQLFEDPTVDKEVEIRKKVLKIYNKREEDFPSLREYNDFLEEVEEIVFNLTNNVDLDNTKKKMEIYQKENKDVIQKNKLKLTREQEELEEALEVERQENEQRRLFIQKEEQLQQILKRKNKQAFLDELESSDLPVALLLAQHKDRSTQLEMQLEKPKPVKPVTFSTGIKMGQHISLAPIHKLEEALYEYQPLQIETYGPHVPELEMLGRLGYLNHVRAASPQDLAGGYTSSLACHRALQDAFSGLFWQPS
Description: as §2, §3, §4
as §5, with “CDK7/cyclinH/MAT1 (h)” for “CDK5/p35 human”, “500 μM peptide,” for “0.1 mg/ml histone H1,”

CDK2/cyclinA (h) = CDK2/cyclinA (h) (Homo sapiens, UniProt P24941); experiment: Kinase profiling C3.3 CDK2/cyclinA human; assay type: biochemical; conditions: test concentration of 10^−6 M
Description: as §2, §3, §4
as §5, with “CDK2/cyclinA (h)” for “CDK5/p35 human”

CDK2/cyclinE (h) = CDK2/cyclinE (h) (Homo sapiens, UniProt P24941); experiment: Kinase profiling C3.4 CDK2/cyclinE human; assay type: biochemical; conditions: test concentration of 10^−6 M
Description: as §2, §3, §4
as §5, with “CDK2/cyclinE (h)” for “CDK5/p35 human”

CDK3/cyclinE (h) = CDK3/cyclinE (h) (Homo sapiens, UniProt Q00526); experiment: Kinase profiling C3.5 CDK3/cyclinE human; assay type: biochemical; conditions: test concentration of 10^−6 M
Description: as §2, §3, §4
as §5, with “CDK3/cyclinE (h)” for “CDK5/p35 human”

CDK1/cyclinB (h) = CDK1/cyclinB (h) (Homo sapiens, UniProt P06493); experiment: Kinase profiling C3.2 CDK1/cyclinB human; assay type: biochemical; conditions: test concentration of 10^−6 M
CDK1/cyclinB (h), sequence (P06493 whole entry): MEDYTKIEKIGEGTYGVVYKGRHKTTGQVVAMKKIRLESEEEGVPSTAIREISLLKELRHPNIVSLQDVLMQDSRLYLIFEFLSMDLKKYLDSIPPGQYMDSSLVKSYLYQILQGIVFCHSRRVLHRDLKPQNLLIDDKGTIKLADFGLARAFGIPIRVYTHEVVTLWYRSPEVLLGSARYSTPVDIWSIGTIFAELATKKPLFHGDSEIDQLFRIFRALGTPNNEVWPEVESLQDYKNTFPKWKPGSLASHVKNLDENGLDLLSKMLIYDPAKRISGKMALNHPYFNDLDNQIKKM
CDK1/cyclinB (h), sequence (P14635 whole entry partner): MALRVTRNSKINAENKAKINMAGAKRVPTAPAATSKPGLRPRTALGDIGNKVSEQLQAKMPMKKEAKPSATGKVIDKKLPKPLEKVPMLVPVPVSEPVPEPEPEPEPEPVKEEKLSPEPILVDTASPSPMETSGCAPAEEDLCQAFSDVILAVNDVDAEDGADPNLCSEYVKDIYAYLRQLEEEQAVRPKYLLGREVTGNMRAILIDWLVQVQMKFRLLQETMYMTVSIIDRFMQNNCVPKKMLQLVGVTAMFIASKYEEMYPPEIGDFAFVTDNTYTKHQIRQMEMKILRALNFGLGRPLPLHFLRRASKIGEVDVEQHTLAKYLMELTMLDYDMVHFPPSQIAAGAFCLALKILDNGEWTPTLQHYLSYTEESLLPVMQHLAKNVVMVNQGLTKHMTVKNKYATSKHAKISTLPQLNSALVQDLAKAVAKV
Description: as §2, §3, §4
as §5, with “CDK1/cyclinB (h)” for “CDK5/p35 human”

Yes (h) = Yes (h) (Homo sapiens, UniProt P07947); experiment: Kinase profiling C3.10 Yes human; assay type: biochemical; conditions: test concentration of 10^−6 M
Yes (h), sequence (P07947 whole entry): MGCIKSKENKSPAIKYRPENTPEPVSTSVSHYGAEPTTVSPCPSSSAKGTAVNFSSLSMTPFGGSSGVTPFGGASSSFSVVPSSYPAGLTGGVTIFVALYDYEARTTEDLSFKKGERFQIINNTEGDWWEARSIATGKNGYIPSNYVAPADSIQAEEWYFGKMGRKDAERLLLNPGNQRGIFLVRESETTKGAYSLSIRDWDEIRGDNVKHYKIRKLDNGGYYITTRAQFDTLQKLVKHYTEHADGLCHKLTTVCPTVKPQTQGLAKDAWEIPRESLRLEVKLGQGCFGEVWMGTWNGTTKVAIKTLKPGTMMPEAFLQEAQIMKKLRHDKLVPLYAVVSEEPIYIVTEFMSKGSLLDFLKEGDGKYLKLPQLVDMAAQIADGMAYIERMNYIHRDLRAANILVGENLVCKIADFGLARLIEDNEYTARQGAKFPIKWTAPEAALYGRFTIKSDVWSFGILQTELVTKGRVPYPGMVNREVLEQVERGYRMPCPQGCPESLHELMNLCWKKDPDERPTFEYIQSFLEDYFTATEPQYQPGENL
Description: as §2, §3, §4
as §5, with “Yes (h)” for “CDK5/p35 human”, “poly(Glu, Tyr) 4:1,” for “histone H1,”, “Filtermat A” for “P30 filtermat”

Aurora-A (h) = molecular target: T1, Aurora-A (h) (Homo sapiens, UniProt O14965); experiment: Kinase profiling C3.1 Aurora-A human; assay type: biochemical; conditions: test concentration of 10^−6 M
T1 sequence (O14965 1-403): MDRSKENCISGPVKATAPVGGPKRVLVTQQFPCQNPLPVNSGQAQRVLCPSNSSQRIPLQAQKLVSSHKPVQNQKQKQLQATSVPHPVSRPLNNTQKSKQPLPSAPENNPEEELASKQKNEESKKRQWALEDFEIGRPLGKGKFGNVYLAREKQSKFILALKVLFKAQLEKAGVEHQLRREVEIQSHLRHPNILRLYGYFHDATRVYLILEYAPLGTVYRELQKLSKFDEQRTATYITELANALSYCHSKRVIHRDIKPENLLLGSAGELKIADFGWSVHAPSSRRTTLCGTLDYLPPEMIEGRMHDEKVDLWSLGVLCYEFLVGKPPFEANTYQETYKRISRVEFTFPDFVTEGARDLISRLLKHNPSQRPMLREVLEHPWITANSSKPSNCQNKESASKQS
Description: as §2, §3, §4
as §5, with “Aurora-A (h)” for “CDK5/p35 human”, “200 μM LRRASLG (Kemptide),” for “0.1 mg/ml histone H1,”, “50” for “75”

cSRC (h) = cSRC (h) (Homo sapiens, UniProt P12931); experiment: Kinase profiling C3.9 cSRC human; assay type: biochemical; conditions: test concentration of 10^−6 M
cSRC (h), sequence (P12931 whole entry): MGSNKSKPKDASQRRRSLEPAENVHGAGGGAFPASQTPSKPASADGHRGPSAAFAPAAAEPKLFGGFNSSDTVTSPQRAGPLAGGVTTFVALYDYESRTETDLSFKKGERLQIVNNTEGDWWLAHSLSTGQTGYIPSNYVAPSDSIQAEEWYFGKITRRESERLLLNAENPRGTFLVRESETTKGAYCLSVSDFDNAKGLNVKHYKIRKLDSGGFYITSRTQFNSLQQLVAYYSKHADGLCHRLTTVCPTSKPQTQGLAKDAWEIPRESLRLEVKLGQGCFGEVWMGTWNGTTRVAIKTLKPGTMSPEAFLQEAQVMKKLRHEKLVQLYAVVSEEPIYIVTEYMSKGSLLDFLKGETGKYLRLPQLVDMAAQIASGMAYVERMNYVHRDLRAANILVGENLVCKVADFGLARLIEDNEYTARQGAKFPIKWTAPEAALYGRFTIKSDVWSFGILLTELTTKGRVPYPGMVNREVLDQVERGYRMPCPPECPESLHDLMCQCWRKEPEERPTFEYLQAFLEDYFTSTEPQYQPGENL
Description: as §2, §3, §4
In a final reaction volume of 25 μl, cSRC (h) (5-10 mU) is incubated with 8 mM MOPS pH 7.0, 0.2 mM EDTA, 250 μM KVEKIGEGTYGVVYK (Cdc2 peptide), 10 mM MgAcetate and [γ-^33P-ATP] (specific activity approx. 500 cpm/pmol, concentration as required). The reaction is initiated by the addition of the MgATP mix. After incubation for 40 minutes at room temperature, the reaction is stopped by the addition of 5 μl of a 3% phosphoric acid solution.
10 μl of the reaction is then spotted onto a P30 filtermat and washed three times for 5 minutes in 75 mM phosphoric acid and once in methanol prior to drying and scintillation counting.

GSK-3β, sequence (P49841 whole entry, species assumed): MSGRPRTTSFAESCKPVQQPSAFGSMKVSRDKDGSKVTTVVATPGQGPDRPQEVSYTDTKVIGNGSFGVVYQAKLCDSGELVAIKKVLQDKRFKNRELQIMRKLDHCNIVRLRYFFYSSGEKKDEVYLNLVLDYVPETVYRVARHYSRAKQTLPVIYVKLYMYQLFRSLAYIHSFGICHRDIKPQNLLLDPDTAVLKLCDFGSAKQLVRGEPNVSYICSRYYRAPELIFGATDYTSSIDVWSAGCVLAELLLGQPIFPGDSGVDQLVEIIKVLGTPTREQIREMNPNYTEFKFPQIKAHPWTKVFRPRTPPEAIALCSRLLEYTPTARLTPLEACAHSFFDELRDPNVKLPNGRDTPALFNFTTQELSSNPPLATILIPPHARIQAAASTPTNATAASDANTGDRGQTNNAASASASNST

SMILES | IC50 (GSK-3β) [nM] | IC50 (GSK-3α) [nM] | C2 Score (Chang cells) | C3.6 score (CDK5/p35 human) | C3.8 score (CDK7/cyclinH/MAT1 (h)) | C3.3 score (CDK2/cyclinA (h)) | C3.4 score (CDK2/cyclinE (h)) | C3.5 score (CDK3/cyclinE (h)) | C3.2 score (CDK1/cyclinB (h)) | C3.10 score (Yes (h)) | C3.1 score (Aurora-A (h)) | C3.9 score (cSRC (h))
CN1CC(=O)NCCNc2cc(ccn2)-c2ncnc(n2)Nc2cccc(c2)C1 [Compound 4] | 10 to 100 | 10 to 100 | 4 (Score 4=>80% increase in D-glucose incorporation) | – | – | – | – | – | – | – | – | –
CN1CC(=O)NCCCNc2cc(ccn2)-c2ncnc(n2)Nc2cccc(c2)C1 [Compound 5] | 10 to 100 | 10 to 100 | 4 (Score 4=>80% increase in D-glucose incorporation) | – | – | – | – | – | – | – | – | –
O=C1CN2CCN(CC2)Cc2cccc(c2)Nc2ncnc(n2)-c2cccc(c2)CCCN1 [Compound 52] | – | < 10 | 4 (Score 4=>80% increase in D-glucose incorporation) | 3 (Score 3 = 60-80% inhibition) | 1 (Score 1 = 10-30% inhibition) | 4 (Score 4 = >80% inhibition) | 4 (Score 4 = >80% inhibition) | 2 (Score 2 = 30-60% inhibition) | 4 (Score 4 = >80% inhibition) | – | – | –
CC(C)N1CC(=O)NCCCc2cc(ccn2)-c2ncnc(n2)Nc2cccc(c2)C1 [Compound 65] | – | < 10 | 3 (Score 3=60-80% increase) | – | – | 2 (Score 2 = 30-60% inhibition) | – | – | – | – | – | –
CN1CC(=O)N(C)CCCc2cc(ccn2)-c2ncnc(n2)Nc2cccc(c2)C1 [Compound 67] | – | < 10 | 4 (Score 4=>80% increase in D-glucose incorporation) | – | – | – | – | – | – | – | – | –
CN1CCCc2cc(ccc2F)-c2ncnc(n2)Nc2cccc(c2)CNC(=O)C1 [Compound 70] | – | < 10 | 4 (Score 4=>80% increase in D-glucose incorporation) | – | – | – | – | – | – | – | – | –
O=C1CNCc2cccc(c2)Nc2ncnc(n2)-c2cncc(c2)CCCN1 [Compound 83] | – | 10 to 100 | 4 (Score 4=>80% increase in D-glucose incorporation) | – | – | 2 (Score 2 = 30-60% inhibition) | – | – | – | 2 (Score 2 = 30-60% inhibition) | 2 (Score 2 = 30-60% inhibition) | 2 (Score 2 = 30-60% inhibition)
O=C1CN2CCN(CC2)Cc2cccc(c2)Nc2ncnc(n2)-c2cncc(c2)CCCN1 [Compound 84] | – | < 10 | 3 (Score 3=60-80% increase) | 2 (Score 2 = 30-60% inhibition) | 1 (Score 1 = 10-30% inhibition) | 2 (Score 2 = 30-60% inhibition) | 3 (Score 3 = 60-80% inhibition) | 2 (Score 2 = 30-60% inhibition) | 3 (Score 3 = 60-80% inhibition) | – | – | –
